Active and inactive are the calls of the source.
How the values were obtained:
Large T antigen = Large T antigen (Simian virus 40, UniProt P03070); type: functional, Betapolyomavirus macacae;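 further: Confirmatory-stage PubChem screen for compounds that inhibit SV40 T antigen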
[1] = molecular target: T1, Polyadenylate-binding protein 1 (Homo sapiens, UniProt P11940); assay: MLLE binding blockers, Cy5 peptide tracer – biochemical, fluorescence polarization, Cy5-PAM2 peptide, secondary, miRNA deadenylation inhibitor project, dose response (AID 602260); type: functional; conditions: read-out: IC50_Mean
T1 sequence (P11940 whole entry): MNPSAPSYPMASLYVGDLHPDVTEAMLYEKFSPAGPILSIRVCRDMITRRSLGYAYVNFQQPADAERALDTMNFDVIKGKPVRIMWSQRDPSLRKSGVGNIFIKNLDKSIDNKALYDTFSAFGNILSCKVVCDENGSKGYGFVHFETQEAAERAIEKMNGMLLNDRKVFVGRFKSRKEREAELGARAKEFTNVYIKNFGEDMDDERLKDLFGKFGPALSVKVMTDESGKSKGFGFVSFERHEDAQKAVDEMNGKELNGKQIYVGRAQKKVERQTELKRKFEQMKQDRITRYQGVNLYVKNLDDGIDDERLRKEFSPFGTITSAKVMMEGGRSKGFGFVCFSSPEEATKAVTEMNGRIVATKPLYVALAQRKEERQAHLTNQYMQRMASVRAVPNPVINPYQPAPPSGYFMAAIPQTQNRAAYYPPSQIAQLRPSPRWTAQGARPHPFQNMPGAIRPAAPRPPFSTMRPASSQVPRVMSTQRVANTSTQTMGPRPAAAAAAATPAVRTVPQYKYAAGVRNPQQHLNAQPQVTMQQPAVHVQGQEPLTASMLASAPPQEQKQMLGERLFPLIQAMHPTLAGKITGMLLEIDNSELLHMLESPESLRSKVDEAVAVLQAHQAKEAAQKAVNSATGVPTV

Streptokinase A = molecular target: T2, Streptokinase A (Streptococcus pyogenes serotype M1, UniProt P10520); assay: viability-normalized secreted streptokinase activity reduction – plasminogen activation absorbance, OD405, dose response (AID 1914); type: functional, Streptococcus pyogenes M1 GAS;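 further: secreted streptokinase activity via plasminogen activation per viability signal from cell pellet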
T2 sequence (P10520 whole entry): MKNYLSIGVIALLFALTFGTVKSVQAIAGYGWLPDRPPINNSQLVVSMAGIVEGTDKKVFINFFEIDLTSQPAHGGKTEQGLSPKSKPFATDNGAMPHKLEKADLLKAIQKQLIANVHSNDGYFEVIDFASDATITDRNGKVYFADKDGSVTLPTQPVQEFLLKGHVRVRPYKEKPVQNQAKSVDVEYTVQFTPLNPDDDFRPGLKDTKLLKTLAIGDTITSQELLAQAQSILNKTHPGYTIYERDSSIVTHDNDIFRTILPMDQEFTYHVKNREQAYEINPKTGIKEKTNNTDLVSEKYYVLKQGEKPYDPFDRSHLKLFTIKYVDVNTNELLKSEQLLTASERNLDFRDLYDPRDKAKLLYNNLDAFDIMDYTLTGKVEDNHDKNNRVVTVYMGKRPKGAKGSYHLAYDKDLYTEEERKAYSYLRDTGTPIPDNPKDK

[2] = molecular target: T1, Polyadenylate-binding protein 1; assay: MLLE domain peptide-binding blockers, IC50 – biochemical, fluorescence polarization, FITC-PAM2 peptide, dose response (AID 602259); type: functional; conditions: read-out: IC50_Mean
[3] = off-target signal loss in HeLa-CEM21 co-culture – HeLa F-luc CTL cells, cherry-picked, counter-screen for HIV-1 Env fusion inhibitor project, dose response (AID 652040); type: functional, cell-based;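 further: potency for signal decrease marking cytotoxic or nonspecific inhibition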
[4] = molecular target: T3, Ubiquitin-conjugating enzyme E2 N (Homo sapiens, UniProt P61088); type: functional;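 further: Dose-response confirmation in a TR-FRET assay detecting UBC13-driven polyubiquitin chain formation, inhibition measured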
T3 sequence (P61088 whole entry): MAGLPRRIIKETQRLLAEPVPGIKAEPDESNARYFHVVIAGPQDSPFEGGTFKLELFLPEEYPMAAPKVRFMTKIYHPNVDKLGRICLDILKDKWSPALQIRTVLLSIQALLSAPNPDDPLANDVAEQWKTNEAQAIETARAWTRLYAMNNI

INS1 = assay: INS-1E survival protection against cytokine death – cell-based, luminescence, retest, dose response (AID 449756); type: functional; conditions: Rattus norvegicus;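 further: cell death triggered by IL-1 beta plus TNF-alpha plus IFN-gamma mixture; protective hits raise ATP signal compared with cytokine alone wells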
[5] = luciferase reporter signal suppression in cells – H4 neuroglioma cells, luminescence, dose response (AID 1990); type: functional, cell-based
[6] = alpha-synuclein stem-loop luciferase translation blockers – H4 neuroglioma cells, luminescence, confirmation (AID 1988); type: functional, cell-based
[7] = Luminescence Cell-Based Dose Retest to Confirm Inhibitors of Cancer Stem Cells. [Related pubchem assays (depositor defined):AID2717, AID2721]; type: functional; conditions: Homo sapiens
[8] = Luminescence Cell-Based Dose Response HTS to Identify Inhibitors of 5'UTR Stem-Loop Driven Prion Protein mRNA Translation in H4 Neuroglioblastoma Cells. [Related pubchem assays: 1827 (Project Summary), 1813 (Primary HTS)]; type: functional
[9] = molecular target: T4, Heat shock factor protein 1 (Mus musculus, UniProt P38532); assay: decrease of HSF1-responsive luciferase luminescence – cell-based, NIH3T3, dose retest, confirmation (AID 2382); type: functional;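 further: NIH3T3 fibroblasts with HSF1-driven luciferase reporter stressed by proteasome inhibitor MG132; luminescence from HSF1-driven luciferase expression after 8 hours of MG132 stress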
T4 sequence (P38532 whole entry): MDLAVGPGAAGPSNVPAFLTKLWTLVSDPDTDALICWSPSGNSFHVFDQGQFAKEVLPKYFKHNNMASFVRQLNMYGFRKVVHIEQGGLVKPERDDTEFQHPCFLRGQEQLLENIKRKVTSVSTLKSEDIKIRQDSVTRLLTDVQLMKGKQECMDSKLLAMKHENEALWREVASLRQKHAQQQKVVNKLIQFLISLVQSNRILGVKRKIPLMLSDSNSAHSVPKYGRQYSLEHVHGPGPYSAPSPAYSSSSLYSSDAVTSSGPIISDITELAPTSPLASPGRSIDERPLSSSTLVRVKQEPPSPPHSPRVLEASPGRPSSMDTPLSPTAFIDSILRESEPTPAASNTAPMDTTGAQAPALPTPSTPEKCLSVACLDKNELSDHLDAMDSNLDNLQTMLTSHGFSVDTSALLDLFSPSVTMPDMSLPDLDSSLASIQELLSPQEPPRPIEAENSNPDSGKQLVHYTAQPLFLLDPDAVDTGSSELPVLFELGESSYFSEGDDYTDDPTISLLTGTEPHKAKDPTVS

[10] = blockers of HIV-1 envelope-mediated cell-cell fusion – cherry-pick, dose response (AID 652057); type: functional, cell-based
[11] = HIV-1 AD8 envelope cell-cell fusion blockers – cherry-pick, dose response (AID 652062); type: functional, cell-based;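 further: luciferase signal from cell-cell fusion driven by HIV-1 clade B AD8 Env; potency is for inhibitors of fusion seen as a drop in luminescence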
[12] = blockers of HIV-1 ZM109 envelope-driven cell-cell fusion – HeLa effector, CEM target cells, luciferase, cherry-pick, dose response (AID 652058); type: functional, cell-based;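 further: luciferase signal from HIV-1 Env mediated cell-cell fusion of effector and target cells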
[13] = molecular target: T5, Rac GTPase-activating protein 1 (Homo sapiens, UniProt Q9H0H5); assay: blockers of MgcRacGAP-driven Rac1 GTP hydrolysis – biochemical, ADP Hunter fluorescence, primary and confirmatory, confirmation (AID 624330); type: functional
T5 sequence (Q9H0H5 whole entry): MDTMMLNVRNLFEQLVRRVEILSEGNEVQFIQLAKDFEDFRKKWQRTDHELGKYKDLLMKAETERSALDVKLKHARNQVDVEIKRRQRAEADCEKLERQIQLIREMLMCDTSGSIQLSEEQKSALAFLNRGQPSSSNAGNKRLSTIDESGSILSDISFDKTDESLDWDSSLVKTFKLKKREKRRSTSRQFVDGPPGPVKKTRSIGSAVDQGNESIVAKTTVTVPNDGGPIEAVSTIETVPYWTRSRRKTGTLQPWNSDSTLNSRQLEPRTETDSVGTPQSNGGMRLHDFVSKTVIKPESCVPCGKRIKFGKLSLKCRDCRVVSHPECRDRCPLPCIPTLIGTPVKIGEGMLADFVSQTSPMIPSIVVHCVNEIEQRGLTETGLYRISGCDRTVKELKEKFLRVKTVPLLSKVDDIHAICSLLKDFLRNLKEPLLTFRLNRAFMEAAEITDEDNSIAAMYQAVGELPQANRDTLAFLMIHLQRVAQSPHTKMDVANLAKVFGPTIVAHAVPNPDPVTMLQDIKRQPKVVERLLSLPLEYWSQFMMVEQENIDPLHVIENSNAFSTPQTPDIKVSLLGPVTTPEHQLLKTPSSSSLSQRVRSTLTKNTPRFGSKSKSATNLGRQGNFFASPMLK

[14] = molecular target: T6, Corticotropin-releasing factor receptor 2/Corticotropin-releasing factor-binding protein (Homo sapiens, UniProt P24387+Q13324); assay: Dose Response confirmation of uHTS hits for small molecule antagonists of the CRF-binding protein and CRF-R2 receptor complex.; type: functional; conditions: read-out: IC50_Mean
T6 sequence (Q13324 whole entry): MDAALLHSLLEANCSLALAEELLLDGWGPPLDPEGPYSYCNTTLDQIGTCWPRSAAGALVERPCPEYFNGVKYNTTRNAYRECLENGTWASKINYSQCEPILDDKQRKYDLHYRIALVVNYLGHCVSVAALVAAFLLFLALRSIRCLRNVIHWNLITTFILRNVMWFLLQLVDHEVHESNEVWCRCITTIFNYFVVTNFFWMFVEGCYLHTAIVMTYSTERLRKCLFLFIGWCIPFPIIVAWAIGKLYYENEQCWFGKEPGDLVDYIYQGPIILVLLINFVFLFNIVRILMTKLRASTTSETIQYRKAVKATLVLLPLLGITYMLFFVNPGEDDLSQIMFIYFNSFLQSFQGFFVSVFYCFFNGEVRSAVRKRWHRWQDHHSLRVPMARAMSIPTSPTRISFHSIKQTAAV
T6 sequence (P24387 whole entry): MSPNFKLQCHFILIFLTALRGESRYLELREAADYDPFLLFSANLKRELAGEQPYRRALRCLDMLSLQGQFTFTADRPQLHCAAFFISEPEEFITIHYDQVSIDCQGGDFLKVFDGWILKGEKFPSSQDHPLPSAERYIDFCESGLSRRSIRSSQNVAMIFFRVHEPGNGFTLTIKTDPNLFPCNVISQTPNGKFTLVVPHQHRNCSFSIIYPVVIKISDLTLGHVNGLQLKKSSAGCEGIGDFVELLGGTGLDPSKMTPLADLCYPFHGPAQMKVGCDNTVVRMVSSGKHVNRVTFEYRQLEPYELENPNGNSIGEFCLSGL

[15] = molecular target: T6, Corticotropin-releasing factor receptor 2/Corticotropin-releasing factor-binding protein; assay: activators of CRF receptor 2 with binding protein – uHTS hits, confirmation (AID 602473); type: functional; conditions: read-out: EC50_Mean

Chain of Large T antigen (P03070 whole entry): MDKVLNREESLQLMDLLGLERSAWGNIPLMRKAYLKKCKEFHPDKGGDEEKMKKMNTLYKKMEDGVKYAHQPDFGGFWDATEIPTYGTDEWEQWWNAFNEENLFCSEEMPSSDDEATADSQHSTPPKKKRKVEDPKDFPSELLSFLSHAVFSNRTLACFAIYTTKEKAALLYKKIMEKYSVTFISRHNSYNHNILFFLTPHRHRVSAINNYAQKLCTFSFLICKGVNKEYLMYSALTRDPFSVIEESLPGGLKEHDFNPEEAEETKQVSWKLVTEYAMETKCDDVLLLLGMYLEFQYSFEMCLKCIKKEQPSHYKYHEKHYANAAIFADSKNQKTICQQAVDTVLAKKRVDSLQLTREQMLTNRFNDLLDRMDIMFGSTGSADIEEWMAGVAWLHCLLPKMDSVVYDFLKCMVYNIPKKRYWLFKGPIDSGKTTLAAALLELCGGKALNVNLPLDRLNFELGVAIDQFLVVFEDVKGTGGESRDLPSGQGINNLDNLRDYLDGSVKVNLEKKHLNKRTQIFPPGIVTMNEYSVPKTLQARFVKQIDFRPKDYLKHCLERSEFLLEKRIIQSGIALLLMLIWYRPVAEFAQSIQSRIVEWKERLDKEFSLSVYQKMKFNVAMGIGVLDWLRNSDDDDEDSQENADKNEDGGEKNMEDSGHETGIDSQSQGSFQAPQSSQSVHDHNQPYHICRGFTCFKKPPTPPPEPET

## ClCC1=Nc2cccc3cccc(c23)N1
Large T antigen
  IC50: 10 µM (active)

## CC(=O)c1ccc(NC(=S)Nc2ccc(Br)c(Cl)c2)cc1
[1]
  IC50: > 66 µM (inactive)
Streptokinase A
  EC50: > 150 µM (not active)
[2]
  IC50: > 66 µM (inactive)

## O=C(NC(=S)Nc1ccc(O)cc1)c1cncc(Br)c1
Large T antigen
  IC50: 6.41 µM (active)

## COc1cc(C(c2c(C)n[nH]c2O)c2c(C)n[nH]c2O)ccc1OC(=O)c1cccc([N+](=O)[O-])c1
Large T antigen
  IC50: > 100 µM (active)

## Cc1cc(Cl)ccc1OCC(=O)NNC(=O)C1CSC2(C)CCC(=O)N12 (configuration not stated)
[3]
  AC50: 39.8 µM (active)

## CCc1ccc(S(=O)(=O)N=C(S)NC2CCCCC2)cc1
[1]
  IC50: > 66 µM (inactive)
[2]
  IC50: > 66 µM (inactive)

## CN1C(=O)/C(=C2/C=CC=CN2C)OC1=S
[1]
  IC50: > 66 µM (inactive)
[2]
  IC50: > 66 µM (inactive)

## CCC(=O)NC(c1cccs1)c1cc(Cl)c2ccccc2c1O (configuration not stated)
[4]
  IC50: > 20 µM (inactive)

## OCCN1CCN(CC/C=C2/c3ccccc3Sc3ccc(Cl)cc32)CC1
[4]
  IC50: > 20 µM (inactive)

## Fc1ccc(CN(Cc2ccccc2)C(c2cccs2)c2nnnn2C2CCCCC2)cc1 (configuration not stated)
INS1
  AC50: 6.47 µM (active)

## O=C(CSc1nnc(C2COc3ccccc3O2)o1)N1CCCC1 (configuration not stated)
[1]
  IC50: > 66 µM (inactive)
[2]
  IC50: > 66 µM (inactive)

## CC(=O)c1c(C)oc2ccc(N(C(C)=O)S(=O)(=O)c3cccc4cccnc34)cc12
INS1
  AC50: 3.85 µM (active)

## CCCCCc1cc(=O)oc2c(C(CCN3CCCC(C)C3)c3cc(OC)c(OC)c(OC)c3)c(OC)cc(OC)c12 (configuration not stated)
INS1
  AC50: 8.07 µM (active)
[5]
  EC50: > 120 µM (not active)
[6]
  EC50: > 120 µM (not active)
[7]
  AC50: 6.25 µM (active)
[8]
  EC50: > 120 µM (not active)

## O=C(CSc1c[nH]nn1)Nc1ccc(O)c(C(=O)O)c1
[1]
  IC50: > 66 µM (inactive)
[2]
  IC50: > 66 µM (inactive)
[9]
  EC50: > 195 µM (not active)

## COc1ccc(CN2C(=O)NC(=O)/C(=C/c3ccoc3)C2=O)cc1
Large T antigen
  IC50: 36.9 µM (active)

## CS(=O)(=O)N1CCN(C(=O)C(Sc2ccccc2)c2ccccc2)CC1 (configuration not stated)
[1]
  IC50: > 66 µM (inactive)
[2]
  IC50: > 66 µM (inactive)

## COc1ccnc2c1c(=O)n(Cc1cccc(F)c1)c(=O)n2C
[4]
  IC50: > 20 µM (inactive)

## Cc1ccc(S(=O)(=O)N2CCCCC2)cc1C(=O)NCCC1=CCCCC1
[10]
  AC50: 3.71 µM (active)
[3]
  AC50: 7.03 µM (active)
[11]
  AC50: 17.1 µM (active)
[12]
  AC50: 5.36 µM (active)

## COc1ccc2[nH]c3c(=O)n(CCCCC(=O)N4CCC(C(N)=O)CC4)c(=S)[nH]c3c2c1
[1]
  IC50: > 66 µM (inactive)
[2]
  IC50: > 66 µM (inactive)
[13]
  IC50: 55.4 µM (active)

## C[C@H](CO)N1C[C@H](C)[C@H](CN(C)C(=O)Cc2ccccc2)OCc2ccccc2-c2c(n(C)c3ccccc23)C1=O
[10]
  AC50: < 0.26 µM (active)
[11]
  AC50: < 0.26 µM (active)
[12]
  AC50: < 0.26 µM (active)

## CC(C)C[C@@H](CN(C)N=O)N(C[C@H](Cc1ccccc1)N(CCc1ccccc1)N=O)N=O
[10]
  AC50: 4.34 µM (active)
[3]
  AC50: 7.74 µM (active)
[11]
  AC50: 7.36 µM (active)
[12]
  AC50: 5.62 µM (active)

## CC(C)[C@H](CN(N=O)[C@@H](Cc1ccccc1)CN(C)N=O)N(CCc1ccccc1)N=O
[10]
  AC50: 5.66 µM (active)
[3]
  AC50: 10.8 µM (active)
[11]
  AC50: 15.5 µM (active)
[12]
  AC50: 12.3 µM (active)

## CCCOc1ccc2ccccc2c1/C=N/n1cnnc1
[10]
  AC50: 24.8 µM (active)
[3]
  AC50: 25.6 µM (active)
[11]
  AC50: 18.5 µM (active)
[12]
  AC50: 4.27 µM (active)

## COc1ccc(O)c(/C=N/NC(=O)c2cccc(N3CCCC3=O)c2)c1
INS1
  AC50: 3.55 µM (active)

## COc1cc(/C=N/n2cnnc2)ccc1OC(=O)c1ccncc1
Large T antigen
  IC50: 75 µM (active)
[13]
  IC50: 31 µM (active)

## Oc1c(Br)cc(-c2ccccc2)cc1Br
[14]
  IC50: 10.1 µM (active)
[15]
  EC50: > 53 µM (inactive)
[13]
  IC50: 85 µM (active)
